From patent US8722014B2, “1 H-[1, 2, 3] triazole substituted amino acids and uses thereof” (Washington University, priority 2009, dated 2014)

Tested on: 9L gliosarcoma cells
Assay: Cell uptake assay in 9L gliosarcoma cells with amino acid transport inhibitors (cluster tray method)
Format: cell-based
Conditions: for percent uptake relative to control, Na ASC: L-Ala/L-Ser/L-Cys 3.3 mM each
Method: The 9L gliosarcoma tumor is an established model for human glioblastoma (brain tumor). Cell uptake assays were performed with 9L gliosarcoma cells using both (R)-[^18F]4 and (S)-[^18F]4. 9L gliosarcoma cells were cultured with Earle's minimal essential medium (MEM) augmented with 10% newborn calf serum, 1% 200 mM L-glutamine, 1% MEM vitamin solution and 1% 10 mM non-essential amino acids (NEAA). The cells were passaged every two to three days prior to use with no more than a total of 20 passages. Two to three days before the uptake assays, suspension of 2.5 or 5.0×10^4 cells in culture media were aliquoted into Costar 24 well plates to achieve log growth phase with approximately 70% confluency at the time of the uptake assay (approximately 10^5 cells per well).
Cell uptake assays were performed using the cluster tray method reported in Gazzola et al., Anal. Biochem. 115: 368-374, 1981. Two buffers were used for the assays, a phosphate buffered saline solution and a sodium-free phosphate buffered choline chloride solution. […] The choline buffer was the same as the sodium buffer except choline chloride was substituted for sodium chloride and choline phosphate dibasic was substituted for sodium phosphate dibasic. A 250 mM solution of choline phosphate dibasic was prepared by boiling 95.6 mL of 75% of choline bicarbonate (0.500 mol) and 16.9 mL of 85% aqueous phosphoric acid (0.247 mol) in 750 mL of water for 60 min. The solution was brought to a total volume of 1 liter with water and brought to pH 7.4 with concentrated aqueous hydrochloric acid. The pH of the sodium and choline buffer solutions was adjusted to 7.4 with concentrated aqueous hydrochloric acid prior to use.
A variety of inhibitor conditions were used to determine which amino acid transport system or systems were responsible for cellular uptake of (R)- and (S)-[^18F]-4. The N-methylated amino acid, methylaminoisobutyric acid (MeAIB), is a selective system A substrate and has been used extensively as a competitive inhibitor of system A transport (Shotwell, M. A., et al. Biochem. Biophys. Acta. 737: 267-284, 1983; Christensen, H. N., et al., J. Biol. Chem. 240: 3609-3616, 1965) The bulky neutral amino acid, 2-aminobicyclo-(2,2,1)-heptane-2-carboxylic acid (BCH), has been extensively used as a competitive inhibitor of system L transport, and under sodium-free conditions BCH is a selective system L inhibitor (Palacin, M., et al., Physiol. Rev. 78: 969-1054, 1998. In the presence of sodium, BCH is also an inhibitor of system B^0,+ which is a sodium-dependent amino acid transporter that typically is a minor transport systems in most tissues. A mixture of L-alanine (L-Ala), L-serine (L-Ser) and L-cysteine (L-Cys), (ASC), was used as a non-specific inhibitor condition, and this combination of amino acids is expected to inhibit a broad range of amino acid transport systems including system ASC. Because of the results of initial cell uptake assays described below and the structural relationship of the 1H-1,2,3-triazole group to the imidazole side chain of L-histidine (L-His), additional uptake assays using L-His as well as the basic side chain amino acids L-arginine (L-Arg) and L-lysine (L-Lys) individually and together (RKH) as competitive inhibitors were performed.
The following inhibitors were added to the appropriate sodium or choline buffer: N-methyl aminoisobutyric acid (MeAIB, 10 mM), a mixture of L-alanine/L-serine/L-cysteine (ASC, 3.3 mM of each amino acid), (R,S)-(endo,exo)-2-aminobicyclo(2,2,1)-heptane-2-carboxylic acid (BCH, 10 mM), L-arginine (Arg, 10 mM), L-lysine (Lys, 10 mM), L-histidine (His, 10 mM) and a mixture of Arg/Lys/H is (RKH, 3.3 mM of each amino acid). For control conditions, 10 mM of sucrose was added to maintain consistent osmolality relative to the inhibitor conditions. The pH of each solution of inhibitor in buffer was adjusted as necessary to 7.40 with 3 M aqueous hydrochloric acid prior to use in cell uptake assays. […]

## Cl.N[C@@H](Cc1cn(CC[18F])nn1)C(=O)O [(S)-[^18F]4, (S)-2-amino-3-[1-(2-fluoroethyl)-1H-[1,2,3]triazol-4-yl]propanoic acid hydrochloride salt-[^18F]]
Neutral amino acid inhibitor assay, p<0.001
  inhibition of uptake by ASC condition relative to the sodium control: 89%
Range over the three basic amino acids
  inhibition of uptake by L-His, L-Arg and L-Lys: 50-69%
Sodium buffer
  inhibition of uptake by L-Arg relative to control: 50%
  inhibition of uptake by L-His relative to control: 69%
Sodium buffer, Arg/Lys/His 3.3 mM each (FIG. 4/6)
  percent uptake relative to control, Na RKH: 37±6%
Sodium buffer, BCH 10 mM, 30 sec uptake, neutral amino acid inhibitor assay (FIG. 3/5)
  percent uptake relative to control, Na BCH: 74±13%
Sodium buffer, 30 sec uptake, neutral amino acid inhibitor assay (FIG. 3/5)
  percent uptake relative to control, Na ASC: 11±7%
Sodium buffer, basic side chain amino acid inhibitor assay (FIG. 4/6)
  percent uptake relative to control, Na ASC: 2.4±3.5%
Sodium buffer, L-arginine 10 mM (FIG. 4/6)
  percent uptake relative to control, Na Arg: 50±9%
Sodium buffer, L-histidine 10 mM (FIG. 4/6)
  percent uptake relative to control, Na His: 31±5%
Sodium buffer, L-lysine 10 mM (FIG. 4/6)
  percent uptake relative to control, Na Lys: 46±4%
Sodium buffer, MeAIB 10 mM, 30 sec uptake, neutral amino acid inhibitor assay (FIG. 3/5)
  percent uptake relative to control, Na MeAIB: 82±7%
Sodium control vs sodium BCH
  inhibition of uptake by BCH versus control in the presence of sodium: 26%
Sodium control vs. choline control
  inhibition of uptake by substituting choline for sodium: 42%
Sodium free conditions
  reduction of uptake by BCH relative to the choline control: approximately 50%
sodium-free choline buffer, BCH 10 mM, relative to sodium control (FIG. 3/5)
  percent uptake relative to control, Cho BCH: 30±6%
sodium-free choline buffer, sucrose 10 mM, relative to sodium control (FIG. 3/5)
  percent uptake relative to control, Cho sucrose: 58±7%
System A inhibitor MeAIB, sodium buffer
  inhibition of uptake by MeAIB: no significant inhibition
